Test results: ChEMBL document CHEMBL1148123, “New diterpenes and norditerpenes from the fruits of Vitex rotundifolia” (2002)
Converted amounts (≈) assume the structure as drawn.

Columns and labels:
PC-12 = test: Cytotoxicity against rat PC12 cells assessed as growth inhibition after 72 hrs by MTT assay; type: functional; conditions: PC-12, 72 h
HCT-116 = test: Cytotoxicity against human HCT116 cells assessed as growth inhibition after 72 hrs by MTT assay; type: functional; conditions: HCT-116, 72 h

SMILES | GI50 (PC-12) [µg/mL] | GI50 (HCT-116) [µg/mL]
CC(=O)O[C@@H]1C[C@@H](C)[C@]2(CCC(=O)O2)[C@@]2(C)CCCC(C)(C)[C@H]12 | > 5 | > 5
COc1ccc([C@@H]2CC(=O)c3c(cc(OC)c(OC)c3O)O2)cc1O | 2.27 (≈ 6.55 µM) | 2.87 (≈ 8.29 µM)
CC(=O)O[C@@H]1C[C@@H](C)[C@](O)(CCC2=CC(=O)OC2)[C@@]2(C)CCCC(C)(C)[C@H]12 [VITEXILACTONE] | > 5 | > 5
COc1ccc(-c2oc3cc(OC)c(OC)c(O)c3c(=O)c2OC)cc1OC [ARTEMETIN] | 2.27 (≈ 5.84 µM) | 2.2 (≈ 5.66 µM)
COc1ccc(-c2oc3cc(OC)c(OC)c(O)c3c(=O)c2OC)cc1O [CASTICIN] | 0.114 (≈ 0.305 µM) | 0.119 (≈ 0.318 µM)
CO[C@H]1C[C@@]2(CC[C@@]3(O2)[C@H](C)C[C@@H](OC(C)=O)[C@H]2C(C)(C)CCC[C@@]23C)[C@H](OC)O1 (relative stereo) | > 5 | > 5
